Test results reported in US20250049867A1, “[…] HERPESVIRUSES” (VIROGIN BIOTECH CANADA LTD., priority 2021, published 2025).
In brackets after ≈: the same amount, converted by molar mass.

Assays:
[1] = tested on: GL261 cells modified to express mNectin1; assay: Orthotopic mNectin1-expressing GL261 glioblastoma model, intratumoral virus injection, survival; assay type: in vivo, mice; conditions: co-expressed with the mIL12 and anti-PD1 payload; GL261-luc-N1
Procedure: In vivo experiments were conducted to test the efficacy of the HSV oncolytic virus encoding different payload molecules against glioblastoma. Two orthotopic mouse models were used. One orthotopic model used CT2A cells modified to express FLuc which enables imaging post-implantation. The other orthotopic model used GL261 cells modified to express mNectin1, which enabled HSV infection, and also to express FLuc which enabled imaging post-implantation. Cells were implanted intracranially in 12-week-old C57B16 mice by stereotactic injection, and one week later the tumors were injected with the indicated viruses.
The control virus contained only the BAC sequences but not the payload sequence. In the first set of experiments, viruses encoding mouse IL-12 (mIL-12) and/or anti-PD-1 antibody and the control virus were each injected intratumorally at the indicated time and dosage according to FIG. 22A and FIG. 22B.
For the combination screens, GL261-luc-N1 cells were intracranially implanted in 12-week-old C57B16 mice, then 1 week later the tumors were injected with the combination of viruses encoding various candidate payloads.
GL261-luc-N1 or CT2A-luc-N1 cells were intracranially implanted in 12-week-old C57B16 mice, then 1 week later the tumors were injected with the indicated viruses.

[2] = tested on: ONCR-1010 with UL30-L774F mutation (ONCR-1012); assay: Acyclovir sensitivity plaque titer assay on Vero cell monolayers; assay type: cell-based, HSV; conditions: 96 h, 90% reduction in plaque titer, 4 days
Procedure: (§1) Acyclovir can be used as a prodrug in HSV-TK mediated suicide gene therapy of cancer, which requires its phosphorylation by HSV thymidine kinase (TK). Virus sensitivity to acyclovir was assayed by adding increasing concentrations of the drug to intact Vero cell monolayers and then infecting with a standard dose of virus. The Vero cell monolayers were incubated for 4 days to allow for virus growth, and then the virus was harvested and the corresponding lysates assayed for virus by plaque assay. The IC90 was calculated as the amount of acyclovir that produced a 90% reduction in plaque titer compared to the untreated control.

[3] = tested on: ONCR-1010; assay: as above; assay type: cell-based, HSV; conditions: 96 h, 90% reduction in plaque titer, 4 days
Procedure: as §1

[4] = dosed orally; cited from earlier work

| Compound | efficacy in combination screen (survival) [1] | IC90 [2] [µg/mL] | IC90 [3] [µg/mL] | bioavailability of acyclovir in the CNS [4] |
| --- | --- | --- | --- | --- |
| 15-hydroxyprostaglandin dehydrogenase [PGDH, 15-hydroxyprostaglandin dehydrogenase [NAD(+)]] | improved efficacy |  |  |  |
| Nc1nc2c(ncn2COCCO)c(=O)[nH]1 [acyclovir] |  | 1.84 (≈ 8.17 µM) | 0.43 (≈ 1.91 µM) | about 1.76 ug/ml |
